Laboratory results: paper PMC8213057, “Targeting ALK2: An Open Science Approach to Developing Therapeutics for the Treatment of Diffuse Intrinsic Pontine Glioma” (Journal of Medicinal Chemistry, 2020)
Several values for one entry are separate records, joined by “and”; a condition that tells them apart may be missing. Identical values can stand only once.

Experiments:
MAPKAPK2 = MAPKAPK2 (Homo sapiens, UniProt P49137); assay: biochemical; conditions: read-out: % enzyme activity, 1 μM; Run 1, Run 2
Chain of MAPKAPK2 (P49137 whole entry): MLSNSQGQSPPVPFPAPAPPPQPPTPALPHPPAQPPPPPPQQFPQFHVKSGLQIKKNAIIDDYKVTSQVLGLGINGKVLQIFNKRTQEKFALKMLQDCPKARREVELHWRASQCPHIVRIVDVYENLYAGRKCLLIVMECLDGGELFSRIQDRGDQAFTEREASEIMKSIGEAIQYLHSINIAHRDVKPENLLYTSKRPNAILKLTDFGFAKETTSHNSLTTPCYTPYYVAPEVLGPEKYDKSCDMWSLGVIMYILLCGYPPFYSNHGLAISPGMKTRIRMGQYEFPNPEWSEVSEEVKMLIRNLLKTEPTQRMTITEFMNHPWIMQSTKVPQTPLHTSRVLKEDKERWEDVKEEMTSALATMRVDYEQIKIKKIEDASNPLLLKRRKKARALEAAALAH

SYK = SYK (Homo sapiens, UniProt P43405); conditions: 1 μM; Run 1, Run 2
PKCepsilon = molecular target: T1, PKCepsilon (Homo sapiens, UniProt Q02156); conditions: 1 μM; Run 1, Run 2
T1 sequence (Q02156 1-737): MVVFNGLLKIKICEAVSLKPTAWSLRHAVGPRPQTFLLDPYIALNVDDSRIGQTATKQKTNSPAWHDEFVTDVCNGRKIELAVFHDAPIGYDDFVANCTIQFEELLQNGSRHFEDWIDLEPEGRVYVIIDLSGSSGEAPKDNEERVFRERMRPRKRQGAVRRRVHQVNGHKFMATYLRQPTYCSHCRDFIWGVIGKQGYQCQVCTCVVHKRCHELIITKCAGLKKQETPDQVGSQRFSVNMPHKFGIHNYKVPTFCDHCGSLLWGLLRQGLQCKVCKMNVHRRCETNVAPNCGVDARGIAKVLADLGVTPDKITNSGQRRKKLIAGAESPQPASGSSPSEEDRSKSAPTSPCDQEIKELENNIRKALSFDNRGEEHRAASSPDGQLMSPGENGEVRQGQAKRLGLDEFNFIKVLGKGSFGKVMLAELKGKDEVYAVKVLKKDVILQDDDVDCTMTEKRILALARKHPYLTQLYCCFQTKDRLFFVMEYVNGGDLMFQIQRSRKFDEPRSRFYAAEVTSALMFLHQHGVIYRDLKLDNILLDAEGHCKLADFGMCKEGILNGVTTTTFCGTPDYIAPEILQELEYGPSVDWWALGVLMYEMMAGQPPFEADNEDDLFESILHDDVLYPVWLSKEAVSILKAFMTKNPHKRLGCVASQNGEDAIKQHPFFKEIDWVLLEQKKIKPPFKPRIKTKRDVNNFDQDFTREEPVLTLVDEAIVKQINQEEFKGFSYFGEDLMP

STK38/NDR1 = STK38/NDR1 (Homo sapiens, UniProt Q15208); conditions: 1 μM; Run 1, Run 2
Chain of STK38/NDR1 (Q15208 whole entry): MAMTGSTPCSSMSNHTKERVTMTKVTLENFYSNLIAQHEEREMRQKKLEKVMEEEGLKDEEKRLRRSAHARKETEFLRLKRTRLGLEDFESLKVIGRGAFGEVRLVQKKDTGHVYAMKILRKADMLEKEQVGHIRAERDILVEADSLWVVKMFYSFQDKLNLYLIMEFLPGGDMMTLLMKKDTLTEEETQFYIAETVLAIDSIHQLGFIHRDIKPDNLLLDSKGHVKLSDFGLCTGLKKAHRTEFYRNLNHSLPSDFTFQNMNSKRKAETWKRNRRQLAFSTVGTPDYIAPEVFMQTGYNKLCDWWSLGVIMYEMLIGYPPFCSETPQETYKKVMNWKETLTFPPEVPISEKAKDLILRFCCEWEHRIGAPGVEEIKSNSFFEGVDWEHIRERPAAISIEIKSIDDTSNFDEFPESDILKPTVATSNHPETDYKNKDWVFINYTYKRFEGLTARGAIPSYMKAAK

ABL2/ARG = ABL2/ARG (Homo sapiens, UniProt P42684); assay: biochemical; conditions: read-out: % enzyme activity, 1 μM; Run 1, Run 2
Chain of ABL2/ARG (P42684 whole entry): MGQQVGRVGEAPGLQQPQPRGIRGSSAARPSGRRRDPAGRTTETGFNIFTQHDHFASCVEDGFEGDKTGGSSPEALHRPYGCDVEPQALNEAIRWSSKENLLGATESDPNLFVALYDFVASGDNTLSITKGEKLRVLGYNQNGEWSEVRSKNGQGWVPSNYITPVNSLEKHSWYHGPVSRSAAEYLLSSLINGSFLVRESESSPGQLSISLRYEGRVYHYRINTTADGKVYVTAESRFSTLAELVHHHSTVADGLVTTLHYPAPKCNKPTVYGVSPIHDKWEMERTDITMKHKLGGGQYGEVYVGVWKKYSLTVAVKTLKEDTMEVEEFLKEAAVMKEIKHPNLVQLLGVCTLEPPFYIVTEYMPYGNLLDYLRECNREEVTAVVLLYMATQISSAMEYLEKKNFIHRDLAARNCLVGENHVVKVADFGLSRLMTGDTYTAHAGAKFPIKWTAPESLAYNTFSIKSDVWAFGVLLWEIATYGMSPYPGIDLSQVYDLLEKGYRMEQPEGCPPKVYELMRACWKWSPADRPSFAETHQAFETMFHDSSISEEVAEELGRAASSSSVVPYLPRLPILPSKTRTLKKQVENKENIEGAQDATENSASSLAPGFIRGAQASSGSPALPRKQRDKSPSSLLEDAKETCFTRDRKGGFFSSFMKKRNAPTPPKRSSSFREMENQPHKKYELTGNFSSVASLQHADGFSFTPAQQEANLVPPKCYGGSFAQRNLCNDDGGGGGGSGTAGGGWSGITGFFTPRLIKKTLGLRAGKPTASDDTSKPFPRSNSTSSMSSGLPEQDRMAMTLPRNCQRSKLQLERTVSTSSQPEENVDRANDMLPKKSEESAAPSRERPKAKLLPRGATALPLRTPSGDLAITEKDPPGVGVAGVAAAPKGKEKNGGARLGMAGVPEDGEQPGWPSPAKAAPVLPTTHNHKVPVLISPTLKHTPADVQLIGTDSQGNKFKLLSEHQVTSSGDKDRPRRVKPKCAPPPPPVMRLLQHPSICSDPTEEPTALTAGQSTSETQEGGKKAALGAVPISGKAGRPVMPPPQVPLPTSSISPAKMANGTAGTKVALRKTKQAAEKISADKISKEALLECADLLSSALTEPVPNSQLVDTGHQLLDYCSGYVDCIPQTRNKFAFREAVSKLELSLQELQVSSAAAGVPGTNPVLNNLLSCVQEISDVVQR

FES/FPS = FES/FPS (Homo sapiens, UniProt P07332); conditions: 1 μM; Run 1, Run 2
Chain of FES/FPS (P07332 whole entry): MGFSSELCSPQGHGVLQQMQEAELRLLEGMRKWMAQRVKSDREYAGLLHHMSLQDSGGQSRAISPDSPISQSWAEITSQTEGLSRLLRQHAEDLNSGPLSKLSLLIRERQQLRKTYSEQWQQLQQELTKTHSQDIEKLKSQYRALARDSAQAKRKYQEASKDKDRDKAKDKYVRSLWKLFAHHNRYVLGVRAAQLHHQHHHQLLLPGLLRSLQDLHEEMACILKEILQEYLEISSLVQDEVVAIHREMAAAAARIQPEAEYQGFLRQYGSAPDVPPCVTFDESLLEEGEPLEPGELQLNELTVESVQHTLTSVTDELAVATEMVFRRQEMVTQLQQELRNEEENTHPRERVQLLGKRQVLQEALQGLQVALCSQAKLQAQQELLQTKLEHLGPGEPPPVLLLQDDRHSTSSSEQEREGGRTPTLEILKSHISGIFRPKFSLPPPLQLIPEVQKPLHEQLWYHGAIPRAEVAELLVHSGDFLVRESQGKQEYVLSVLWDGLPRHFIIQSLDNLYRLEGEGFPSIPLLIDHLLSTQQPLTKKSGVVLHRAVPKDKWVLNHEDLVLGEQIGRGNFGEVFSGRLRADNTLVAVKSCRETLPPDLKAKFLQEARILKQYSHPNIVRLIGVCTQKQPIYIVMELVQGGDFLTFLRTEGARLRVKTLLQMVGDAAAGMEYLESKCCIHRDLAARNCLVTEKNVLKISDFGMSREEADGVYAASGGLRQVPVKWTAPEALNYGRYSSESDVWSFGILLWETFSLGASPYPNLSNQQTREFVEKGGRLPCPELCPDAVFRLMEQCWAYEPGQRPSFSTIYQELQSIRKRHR

CAMK1g = CAMK1g (Homo sapiens, UniProt Q96NX5); assay: biochemical; conditions: read-out: % enzyme activity, 1 μM; Run 1, Run 2
Chain of CAMK1g (Q96NX5 whole entry): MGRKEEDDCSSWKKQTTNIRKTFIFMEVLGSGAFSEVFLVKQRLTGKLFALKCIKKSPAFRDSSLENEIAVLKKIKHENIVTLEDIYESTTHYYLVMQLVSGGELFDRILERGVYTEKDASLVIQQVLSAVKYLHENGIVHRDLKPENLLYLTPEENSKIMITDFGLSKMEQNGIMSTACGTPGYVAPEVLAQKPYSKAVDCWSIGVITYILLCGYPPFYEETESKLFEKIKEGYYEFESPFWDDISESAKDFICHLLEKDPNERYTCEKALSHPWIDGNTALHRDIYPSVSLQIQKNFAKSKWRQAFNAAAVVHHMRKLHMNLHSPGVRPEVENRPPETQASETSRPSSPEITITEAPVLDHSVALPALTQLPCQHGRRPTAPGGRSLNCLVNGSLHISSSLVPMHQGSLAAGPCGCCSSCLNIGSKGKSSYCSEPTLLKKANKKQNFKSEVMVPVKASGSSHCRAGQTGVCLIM

EPHA5 = EPHA5 (Homo sapiens, UniProt P54756); assay: biochemical; conditions: read-out: % enzyme activity, 1 μM; Run 1, Run 2
PKCiota = molecular target: T2, PKCiota (Homo sapiens, UniProt P41743); conditions: 1 μM; Run 1, Run 2
T2 sequence (P41743 1-596): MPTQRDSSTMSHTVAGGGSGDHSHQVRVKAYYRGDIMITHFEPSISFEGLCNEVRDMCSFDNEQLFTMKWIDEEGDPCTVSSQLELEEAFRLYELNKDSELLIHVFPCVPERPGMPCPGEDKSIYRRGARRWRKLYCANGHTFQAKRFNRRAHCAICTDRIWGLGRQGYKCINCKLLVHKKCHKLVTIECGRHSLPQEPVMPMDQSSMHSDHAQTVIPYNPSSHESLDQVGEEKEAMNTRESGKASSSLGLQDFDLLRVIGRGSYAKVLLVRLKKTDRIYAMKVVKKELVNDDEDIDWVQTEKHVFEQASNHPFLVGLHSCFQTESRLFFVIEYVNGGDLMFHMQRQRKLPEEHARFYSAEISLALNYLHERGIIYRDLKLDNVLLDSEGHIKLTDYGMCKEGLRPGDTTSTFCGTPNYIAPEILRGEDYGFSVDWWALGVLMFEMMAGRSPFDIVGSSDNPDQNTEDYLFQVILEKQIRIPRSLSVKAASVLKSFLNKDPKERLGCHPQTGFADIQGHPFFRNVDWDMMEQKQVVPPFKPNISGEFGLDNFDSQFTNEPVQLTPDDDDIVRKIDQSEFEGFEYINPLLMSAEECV

EPHA2 = EPHA2 (Homo sapiens, UniProt P29317); conditions: 1 μM; Run 1, Run 2
Chain of EPHA2 (P29317 24-976): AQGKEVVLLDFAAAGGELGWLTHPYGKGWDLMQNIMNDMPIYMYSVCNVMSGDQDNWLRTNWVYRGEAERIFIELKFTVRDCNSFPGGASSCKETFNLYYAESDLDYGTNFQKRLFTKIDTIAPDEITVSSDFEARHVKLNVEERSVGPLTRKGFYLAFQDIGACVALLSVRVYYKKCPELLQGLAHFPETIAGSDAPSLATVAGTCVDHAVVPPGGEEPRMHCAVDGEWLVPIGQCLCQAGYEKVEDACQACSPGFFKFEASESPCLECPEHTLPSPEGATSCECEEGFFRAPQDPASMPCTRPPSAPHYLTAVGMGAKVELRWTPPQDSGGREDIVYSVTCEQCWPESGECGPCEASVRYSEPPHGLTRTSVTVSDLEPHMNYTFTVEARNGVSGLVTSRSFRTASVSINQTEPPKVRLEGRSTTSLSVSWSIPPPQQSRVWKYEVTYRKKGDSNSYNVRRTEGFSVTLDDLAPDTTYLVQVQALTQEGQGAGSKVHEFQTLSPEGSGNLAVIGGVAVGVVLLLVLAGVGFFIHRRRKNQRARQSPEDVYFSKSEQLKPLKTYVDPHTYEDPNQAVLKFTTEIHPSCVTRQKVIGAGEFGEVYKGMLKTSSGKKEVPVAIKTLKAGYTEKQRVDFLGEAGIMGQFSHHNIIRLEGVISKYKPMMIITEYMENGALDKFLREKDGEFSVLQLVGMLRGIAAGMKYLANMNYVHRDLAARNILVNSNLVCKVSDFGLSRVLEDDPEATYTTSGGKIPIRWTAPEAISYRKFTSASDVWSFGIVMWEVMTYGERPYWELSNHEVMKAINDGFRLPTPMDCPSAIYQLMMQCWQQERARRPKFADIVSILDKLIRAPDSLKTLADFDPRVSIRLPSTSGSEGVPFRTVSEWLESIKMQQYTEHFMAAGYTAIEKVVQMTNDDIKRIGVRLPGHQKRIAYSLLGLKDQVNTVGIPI

ERK2/MAPK1 = ERK2/MAPK1 (Homo sapiens, UniProt P28482); conditions: 1 μM; Run 1, Run 2
Chain of ERK2/MAPK1 (P28482 whole entry): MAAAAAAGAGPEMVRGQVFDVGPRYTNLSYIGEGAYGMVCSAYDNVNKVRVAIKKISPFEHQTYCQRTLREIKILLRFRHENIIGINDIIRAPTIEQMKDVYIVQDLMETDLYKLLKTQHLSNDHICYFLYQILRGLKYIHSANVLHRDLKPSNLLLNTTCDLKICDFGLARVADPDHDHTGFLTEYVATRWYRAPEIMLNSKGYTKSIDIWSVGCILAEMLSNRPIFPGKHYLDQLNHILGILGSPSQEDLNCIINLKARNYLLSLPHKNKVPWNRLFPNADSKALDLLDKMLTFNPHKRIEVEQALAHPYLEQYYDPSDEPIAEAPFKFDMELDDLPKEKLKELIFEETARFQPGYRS

EPHA6 = molecular target: T3, EPHA6 (Homo sapiens, UniProt Q9UF33); conditions: 1 μM; Run 1, Run 2
T3 sequence (Q9UF33 23-1036): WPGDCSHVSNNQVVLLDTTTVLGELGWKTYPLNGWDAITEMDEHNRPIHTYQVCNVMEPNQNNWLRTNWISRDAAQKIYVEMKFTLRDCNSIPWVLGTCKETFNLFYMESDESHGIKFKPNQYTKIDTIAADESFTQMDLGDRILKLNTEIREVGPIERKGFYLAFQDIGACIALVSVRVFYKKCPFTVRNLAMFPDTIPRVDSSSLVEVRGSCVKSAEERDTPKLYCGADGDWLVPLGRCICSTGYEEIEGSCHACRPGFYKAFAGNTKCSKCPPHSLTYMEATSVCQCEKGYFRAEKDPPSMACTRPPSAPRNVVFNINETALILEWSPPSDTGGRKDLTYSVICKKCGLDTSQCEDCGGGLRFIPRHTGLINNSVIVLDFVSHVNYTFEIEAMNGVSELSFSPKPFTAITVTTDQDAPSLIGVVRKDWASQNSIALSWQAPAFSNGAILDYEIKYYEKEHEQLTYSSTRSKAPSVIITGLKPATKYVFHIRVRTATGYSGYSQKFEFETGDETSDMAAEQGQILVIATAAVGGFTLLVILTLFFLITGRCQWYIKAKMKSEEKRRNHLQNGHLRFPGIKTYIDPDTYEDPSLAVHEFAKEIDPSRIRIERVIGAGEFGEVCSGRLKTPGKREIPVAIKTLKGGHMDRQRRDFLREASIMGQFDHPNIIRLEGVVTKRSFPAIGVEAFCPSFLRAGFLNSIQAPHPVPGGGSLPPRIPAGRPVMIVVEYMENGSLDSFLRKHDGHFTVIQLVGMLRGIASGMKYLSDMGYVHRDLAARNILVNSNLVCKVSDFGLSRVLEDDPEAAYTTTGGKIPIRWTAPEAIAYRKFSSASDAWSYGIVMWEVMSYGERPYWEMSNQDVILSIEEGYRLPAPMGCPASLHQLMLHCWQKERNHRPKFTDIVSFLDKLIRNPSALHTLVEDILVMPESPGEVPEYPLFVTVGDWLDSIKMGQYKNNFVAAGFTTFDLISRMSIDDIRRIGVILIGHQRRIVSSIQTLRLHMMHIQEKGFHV

| SMILES | remaining activity at 1 µM (MAPKAPK2) [%] | % enzyme activity (SYK) [%] | % enzyme activity at 1 μM (TNK1) | % enzyme activity (PKCepsilon) [%] | % enzyme activity (STK38/NDR1) [%] | remaining activity at 1 µM (ABL2/ARG) [%] | % enzyme activity (FES/FPS) [%] | remaining activity at 1 µM (CAMK1g) [%] | remaining activity at 1 µM (EPHA5) [%] | % enzyme activity (PKCiota) [%] | % enzyme activity (EPHA2) [%] | % enzyme activity (ERK2/MAPK1) [%] | % enzyme activity (EPHA6) [%] |
| --- | --- | --- | --- | --- | --- | --- | --- | --- | --- | --- | --- | --- | --- |
| COc1cc(-c2cncc(-c3ccc(N4C[C@@H](C)N(C)[C@@H](C)C4)cc3)c2C)cc(F)c1C(N)=O [Compound 26c, 2-Fluoro-6-methoxy-4-(4-methyl-5-(4-((3R,5S)-3,4,5-trimethylpiperazin-1-yl)phenyl)pyridin-3-yl)benzamide] | 95.4 | 101.24 | 98.6% and 98.2% | 105.76 | 93.15 | 97.1 | 98.66 | 108 | 92.7 | 98.91 | 104.56 | 87.49 | 103.73 |
| COc1cc(-c2cncc(-c3ccc(N4CCN(C)CC4)cc3)c2C)cc(F)c1C(N)=O [Compound 26a, 2-Fluoro-6-methoxy-4-(4-methyl-5-(4-(4-methylpiperazin-1-yl)phenyl)pyridin-3-yl)benzamide] | 103 | 100.12 | 105% and 99.5% | 96.64 | 90.38 | 97.3 | 99.20 | 102 | 92.2 | 100.36 | 97.38 | 91.58 | 103.54 |
